Measured values as given in US11566056B2, “Peptide and use thereof for treatment of disease of brain and nervous system” (SYLUS CO., LTD, priority 2020, dated 2023).
Several values for one entry are separate records, joined by “and”; a condition that tells them apart may be missing. Equal entries are not always repeated. Ends that are not written are not given here.

Assays:
[1] = target: T1, Soluble mouse EPOR chimera protein (Mus musculus, UniProt P14753); experiment: surface plasmon resonance (SPR) binding to erythropoietin receptor; conditions: peptide 5, 2.5 and 1.25 μM
T1 construct: Soluble mouse EPOR chimera protein; purchased R&D Systems
T1 sequence (P14753 25-249 limits assumed): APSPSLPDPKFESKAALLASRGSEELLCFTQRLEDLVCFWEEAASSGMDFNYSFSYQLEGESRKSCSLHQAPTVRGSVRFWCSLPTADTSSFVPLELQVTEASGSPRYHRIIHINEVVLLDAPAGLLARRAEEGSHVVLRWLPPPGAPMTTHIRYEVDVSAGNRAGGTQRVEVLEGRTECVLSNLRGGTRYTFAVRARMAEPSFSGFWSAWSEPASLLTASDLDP
Description: The SPR technique uses an optical principle to measure the interaction between biomolecules in real time without a specific label, and is a system that analyzes the affinity and kinetics between two molecules, that is, Ka (association rate) and Kd (dissociation rate).
Specifically, the real-time SPR analysis was performed using Reichert SPR Biosensor SR 7500C equipment (Reichert Inc., NY, USA). Receptor mouse EPOR chimera protein (Soluble mouse EPOR chimera protein)(R&D Systems, Minneapolis, Minn., USA) was covalently bonded to a chip (BR-1005-39, Pharmacia Biosensor AB) coated with carboxy methylated dextran matrix by an amine coupling procedure using an amine coupling kit (BR-1000-50, GE Healthcare, USA) according to the manufacturer's manual. Peptides having concentrations of 5, 2.5 and 1.25 μM according to the present disclosure and scrambled peptides were tested by flowing at a flow rate of 5 μl/minute. In addition, the experiment was independently repeated to increase the accuracy. In addition, DMSO was flowed at 5 μl/minute to normalize the signal. After sufficiently inducing the binding of the peptide of an aspect to the receptor, regeneration was induced by injecting 20 μl/minute of 25 mM acetic acid into a sensor chip.

HT-22 cells = experiment: cell viability under hypoxia-reoxygenation (H/R) conditions; format: cell-based; design: cell viability under hypoxia-reoxygenation conditions / cell viability under hypoxia-reoxygenation conditions, Average: unit not given here; conditions: for cell viability under hypoxia-reoxygenation conditions, Average: average of 3; for cell viability under hypoxia-reoxygenation conditions: individual replicate
Description: First, the degree of cell viability was confirmed. Specifically, HT-22 cells cultured on a 96-well plate or a 6-well plate for 24 hours were maintained under hypoxic condition for 18 hours in a sealed airtight container of Anaeropack (Mitsubishi Gas Company, Tokyo, Japan). The Anaeropack absorbs oxygen and generates carbon dioxide, thereby inducing a hypoxic environment. Next, reoxygenation was performed at 5% CO2 and 37° C. for 3 hours.
Cell viability was compared when treated with SY-1, SY-2 and SY-3 of H/R cells cultured under low oxygen conditions (Hypoxia) and later cultured under oxygen conditions (Reoxygenation).

ka [1] | kd [1] | Sequence | cell viability under hypoxia-reoxygenation conditions, Average (HT-22 cells; 1 uM) | cell viability under hypoxia-reoxygenation conditions (HT-22 cells; 1 uM) | cell viability under hypoxia-reoxygenation conditions, Average (HT-22 cells; 2.5 uM) | cell viability under hypoxia-reoxygenation conditions (HT-22 cells; 2.5 uM) | cell viability under hypoxia-reoxygenation conditions, Average (HT-22 cells; 5 uM) | cell viability under hypoxia-reoxygenation conditions (HT-22 cells; 5 uM) | cell viability under H/R conditions (in words) (HT-22 cells; hypoxia 18 hours, reoxygenation 3 hours)
32.5770 | 0.0506 | LQLHVLKAVSGLRTLTMIRRALG [SY-2] | 0.671 | 0.658 and 0.673 and 0.682 | 0.676 | 0.671 and 0.667 and 0.689 | 0.661 | 0.652 and 0.677 and 0.655 | –
25.6240 | 0.0554 | LQLHVLKAVAGLRTLTMIRRALA [SY-3] | 0.726 | 0.722 and 0.736 and 0.719 | 0.735 | 0.739 and 0.741 and 0.724 | 0.727 | 0.707 and 0.732 and 0.741 | the cell viability was the highest
31.5970 | 0.0446 | LQLHVLKAVSGLRTLTTLLRALG [SY-1] | 0.654 | 0.662 and 0.657 and 0.644 | 0.655 | 0.649 and 0.663 and 0.652 | 0.647 | 0.648 and 0.653 and 0.641 | –
